The text below walks through data of ChEMBL document CHEMBL4118100, “High Mobility Group Box-1 (HMGb1): Current Wisdom and Advancement as a Potential Drug Target” (J Med Chem, 2018).

Residues, ends and D or L forms follow the SMILES beside them.

Assay [1] deals with T1, High mobility group protein B1 (Homo sapiens, UniProt P09429).
T1 sequence (P09429 whole entry): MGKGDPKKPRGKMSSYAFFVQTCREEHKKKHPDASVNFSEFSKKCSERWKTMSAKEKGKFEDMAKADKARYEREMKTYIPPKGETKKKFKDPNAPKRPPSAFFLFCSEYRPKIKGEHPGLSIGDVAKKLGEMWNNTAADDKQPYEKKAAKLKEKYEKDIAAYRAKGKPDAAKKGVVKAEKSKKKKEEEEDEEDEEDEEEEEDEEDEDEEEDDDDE
Put plainly: Binding affinity to recombinant HMGB1 A box region (1 to 89 residues) (unknown origin) expressed Escherichia coli after 5 mins by fluorescence-based assay.

Assay [2] deals with T1, High mobility group protein B1. Briefly: Binding affinity to recombinant HMGB1 B box region (90 to 175 residues) (unknown origin) expressed Escherichia coli after 5 mins by fluorescence-based assay.
The target in assay [3] is Toll-like receptor 4/MD-2 (Homo sapiens, UniProt O00206+Q9Y6Y9). Briefly: Binding affinity to recombinant human 10His-tagged TLR4 (24 to 631 residues)/recombinant human 10His-tagged MD2 (17 to 160 residues) after 5 mins by SPR assay. It is filed as protein-complex assay. On the technique in general: Surface plasmon resonance follows binding to a sensor surface in real time, without labels.
Toll-like receptor 4/MD-2, sequence (O00206 whole entry, the tested form may be a part): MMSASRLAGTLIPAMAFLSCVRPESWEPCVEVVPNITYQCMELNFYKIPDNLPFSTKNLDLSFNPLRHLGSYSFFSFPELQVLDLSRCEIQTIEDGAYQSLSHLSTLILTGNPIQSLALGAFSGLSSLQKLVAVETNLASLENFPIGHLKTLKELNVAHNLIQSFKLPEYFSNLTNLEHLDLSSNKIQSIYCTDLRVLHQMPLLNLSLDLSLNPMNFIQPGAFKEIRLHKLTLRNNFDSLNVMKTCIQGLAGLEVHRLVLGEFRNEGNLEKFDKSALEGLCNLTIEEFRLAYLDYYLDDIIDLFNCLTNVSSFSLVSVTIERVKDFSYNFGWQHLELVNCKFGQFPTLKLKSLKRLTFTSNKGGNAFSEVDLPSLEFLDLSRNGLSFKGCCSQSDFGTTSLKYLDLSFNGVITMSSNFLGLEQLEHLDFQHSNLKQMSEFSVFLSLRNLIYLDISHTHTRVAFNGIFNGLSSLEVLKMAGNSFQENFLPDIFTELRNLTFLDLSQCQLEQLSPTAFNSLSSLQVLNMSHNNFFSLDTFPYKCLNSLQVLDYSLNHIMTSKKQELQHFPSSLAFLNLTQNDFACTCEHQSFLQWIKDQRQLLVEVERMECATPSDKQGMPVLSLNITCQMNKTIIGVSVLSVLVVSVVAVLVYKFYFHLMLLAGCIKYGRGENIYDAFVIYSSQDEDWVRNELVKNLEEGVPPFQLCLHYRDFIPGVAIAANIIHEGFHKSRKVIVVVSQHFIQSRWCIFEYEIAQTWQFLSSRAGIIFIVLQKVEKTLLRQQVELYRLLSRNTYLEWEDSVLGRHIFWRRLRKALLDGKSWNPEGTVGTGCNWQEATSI
Toll-like receptor 4/MD-2, sequence (Q9Y6Y9 whole entry, the tested form may be a part): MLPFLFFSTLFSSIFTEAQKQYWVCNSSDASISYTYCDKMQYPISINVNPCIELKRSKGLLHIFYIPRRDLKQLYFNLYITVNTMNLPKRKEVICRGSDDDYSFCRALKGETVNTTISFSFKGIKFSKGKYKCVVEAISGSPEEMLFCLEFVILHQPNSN

Assay [4] concerns the target T1, High mobility group protein B1. Put plainly: Binding affinity to N-terminal 6His-tagged HMGB1 Bj region (88 to 181 residues) (unknown origin) expressed in Escherichia coli JM109 by SPR assay.
The target is the same in assay [5]. Put plainly: Binding affinity to N-terminal 6His-tagged HMGB1 AI region (1 to 87 residues) (unknown origin) expressed in Escherichia coli JM109 by SPR assay.
Assay [6] shares this target. Put plainly: Binding affinity to recombinant HMGB1 box A (unknown origin).
The target is the same in assay [7]. Briefly: Binding affinity to recombinant HMGB1 box B (unknown origin).

The term Kd denotes the concentration at which binding is half-saturated. For the compound `CC1(C)[C@@H](O[C@H]2O[C@H](C(=O)O)[C@@H](O)[C@H](O)[C@H]2O[C@@H]2O[C@H](C(=O)O)[C@@H](O)[C@H](O)[C@H]2O)CC[C@]2(C)[C@H]3C(=O)C=C4[C@@H]5C[C@@](C)(C(=O)O)CC[C@]5(C)CC[C@@]4(C)[C@]3(C)CC[C@@H]12` [GLYCYRRHIZIN], the results for the Kd in assay [1] and in assay [2] were 103 µM and 87 µM, respectively. Take `CSCC[C@H](NC(=O)[C@H](C)N)C(=O)N[C@@H](C)C(=O)N[C@@H](CC(C)C)C(=O)N[C@@H](CC(=O)O)C(=O)N[C@@H](CS)C(=O)N[C@@H](Cc1ccccc1)C(=O)N[C@@H](CCCNC(=N)N)C(=O)N[C@@H](Cc1c[nH]c2ccccc12)C(=O)NCC(=O)N[C@@H](Cc1c[nH]c2ccccc12)C(=O)N[C@@H](CCCNC(=N)N)C(=O)N[C@@H](CCSC)C(=O)N[C@@H](Cc1c[nH]c2ccccc12)C(=O)N[C@@H](CS)C(=O)N[C@@H](CO)C(=O)N[C@@H](CO)C(=O)NCC(=O)O` (H-AMALDCFRWGWRMWCSSG-OH): in assay [3], the dissociation constant (Kd) amounted to 5.95 µM. Turning to `CN(Cc1cnc2nc(N)nc(N)c2n1)c1ccc(C(=O)N[C@@H](CCC(=O)O)C(=O)O)cc1` [METHOTREXATE], the Kd in assay [4] was determined as 0.024 µM; in assay [5] it was 0.5 µM. For the compound `O=C(O)c1ccccc1O` [SALICYLIC ACID], the Kd in assay [6] and in assay [7] was 1 to 10 µM throughout.
